Reference: ChEMBL document CHEMBL1201862, “PubChem BioAssay data set” (2004)
Calls of active or inactive are those of the source.

Legend:
[1] = tested on: BJ; experiment: BJ-TERT fibroblast viability loss – cell-based, RAS-independent, luminescence, dose response (AID 1933); assay type: functional, Homo sapiens; settings: bj
[2] = tested on: BJ; experiment: cells; assay type: functional, cell-based, Homo sapiens; settings: bj
[3] = tested on: BJ; experiment: BJ-TERT-LT-ST fibroblast viability loss – cell-based, RAS-independent, luminescence, dose response (AID 1935); assay type: functional, Homo sapiens; settings: bj;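 note: BJ fibroblasts immortalized with TERT plus LT and ST oncogenes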
[4] = molecular target: X-box-binding protein 1 (Homo sapiens, UniProt P17861); assay type: functional, Cricetulus griseus;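 note: confirmatory dose-response counter-screen serving a CHOP assay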
[5] = Trypanosoma cruzi growth suppression in host cells – NIH3T3 host cells, beta-gal luminescence, confirmation (AID 2044); assay type: functional, cell-based;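 note: intracellular parasites grown in NIH/3T3 mouse fibroblasts as host cells; luminescent beta-galactosidase reporter signal from transgenic T. cruzi replicating inside host cells; inhibitors lower the luminescence signal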
[6] = NIH3T3 cell viability loss – ATP luminescence, mouse fibroblasts, counter-screen, dose response (AID 2010); assay type: functional, cell-based;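 note: cells exposed to compound for about 90 hours before reading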
[7] = THP-1 cell cytotoxicity, dose response, cytotoxicity control for non-replicating M. tuberculosis project (AID 489025); assay type: functional
[8] = HepG2 cell cytotoxicity, dose response, cytotoxicity control for non-replicating M. tuberculosis project (AID 489018); assay type: functional; settings: Mycobacterium tuberculosis
[9] = Vero E6 cell cytotoxicity, dose response, cytotoxicity control for non-replicating M. tuberculosis project, secondary assay (AID 492998); assay type: functional, VeroE6; settings: Vero C1008
[10] = cells; assay type: functional
[11] = molecular target: Photoreceptor-specific nuclear receptor (Homo sapiens, UniProt Q9Y5X4); assay type: functional;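 note: potency for compounds that break the NR2E3 corepressor complex and count as activators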
[12] = molecular target: Peroxisome proliferator-activated receptor gamma/Nuclear receptor coactivator 1 (Homo sapiens, UniProt P37231); experiment: (§1) TR-FRET dose response biochemical High Throughput Screening assay for agonists of the steroid receptor coactivator 1 (SRC-1) recruitment by the peroxisome proliferator-activated receptor gamma (PPAR gamma): non-selective agonists. [Related pubchem assays (depositor defined):AID1300, AID1808, AID504735, AID631]; assay type: protein assay
[13] = molecular target: Peroxisome proliferator-activated receptor gamma/Nuclear receptor coactivator 3 (Homo sapiens, UniProt P37231); experiment: as §1, with “3 (SRC-3)” for “1 (SRC-1)”, “assays: 1301 (Confirmation screen.), 1048 (Primary screen.)]” for “assays (depositor defined):AID1300, AID1808, AID504735, AID631]”; assay type: functional
[14] = molecular target: Peroxisome proliferator-activated receptor gamma/Nuclear receptor coactivator 2 (Homo sapiens, UniProt P37231); experiment: TR-FRET dose response biochemical High Throughput Screening assay for agonists of the steroid receptor coactivator 2 (SRC-2) recruitment by the peroxisome proliferator-activated receptor gamma (PPAR gamma): non-selective agonists. [Related pubchem assays: 1297, 1032 ]; assay type: functional
[15] = molecular target: Peroxisome proliferator-activated receptor gamma/Nuclear receptor corepressor 2 (Homo sapiens, UniProt P37231+Q9Y618); assay type: functional
[16] = molecular target: Protein Tat (Human immunodeficiency virus type 1 group M subtype B (isolate HXB2)(HIV-1), UniProt P04608); assay type: functional;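 note: tat binding to TAR RNA read out by fluorescence polarization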
[17] = molecular target: Glucose-6-phosphate 1-dehydrogenase (Homo sapiens, UniProt P11413); experiment: inhibition of Homo sapiens G6PD, dose series – biochemical, fluorescence, selectivity assay for P. falciparum G6PD inhibitor project, dose response (AID 504792); assay type: functional
[18] = Luminescence Cell-Based Dose Retest to Confirm Inhibitors of Cancer Stem Cells. [Related pubchem assays (depositor defined):AID2717, AID2721]; assay type: functional; settings: Homo sapiens
[19] = molecular target: Beta-galactosidase (Escherichia coli, UniProt Q8VNN2); experiment: detection-enzyme interference by beta-gal modulators – biochemical, E. coli enzyme, set 3, artefact control for CCR6 antagonist project, dose response (AID 504712); assay type: functional
[20] = molecular target: DNA dC->dU-editing enzyme APOBEC-3G (Homo sapiens, UniProt Q9HC16); experiment: Dose Response confirmation of small molecule APOBEC3G DNA Deaminase Inhibitors via a fluorescence-based single-stranded DNA deaminase assay. [Related pubchem assays (depositor defined):AID493012, AID493028]; assay type: functional
[21] = molecular target: Heat shock protein HSP 90-alpha (Homo sapiens, UniProt P07900); assay type: functional, organism-based
[22] = reduction of Shn3 3'UTR-driven luciferase in osteoblasts – cell-based, Clone20 osteoblasts, firefly luciferase, cherry-picked, dose response (AID 624132); assay type: functional;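 note: firefly luciferase luminescence from reporter carrying the Shn3 3'UTR in osteoblasts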
[23] = loss of viability in HepG2 cells – cell-based, CellTiter-Glo, cherry-picked, cytotoxicity control for Shn3 inhibitor project, dose response (AID 624134); assay type: functional
[24] = non-specific 3'UTR reporter inhibition in Clone20-Shn3RL – cell-based, Renilla luciferase, cherry-picked, counter-screen for Shn3 inhibitor project, dose response (AID 624133); assay type: functional
[25] = Shn3 3'UTR reporter signal decrease – cell-based, Clone20 osteoblasts, firefly luciferase, cherry-pick, set 2, Schnurri-3 inhibitor project, dose response (AID 720490); assay type: functional;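 note: actives lower the luminescence signal as inhibitors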
[26] = EF1alpha-driven Renilla reporter with control 3'UTR suppression – Clone20-Shn3RL cells, dual-Glo, cherry-pick, set 2, counter-screen for Shn3 3'UTR targeting project, dose response (AID 720724); assay type: functional, cell-based; settings: Dual-Go Shn3RL
[27] = molecular target: Troponin, cardiac muscle (Homo sapiens, UniProt P19429+P45379+P63316); experiment: Fluorescence-based biochemical high throughput dose response assay for activators of the calcium sensitivity of cardiac Regulated Thin Filaments (RTF). [Related pubchem assays (depositor defined):AID493008, AID493018, AID504382, AID504383]; assay type: protein-complex assay

X-box-binding protein 1, sequence (P17861 whole entry): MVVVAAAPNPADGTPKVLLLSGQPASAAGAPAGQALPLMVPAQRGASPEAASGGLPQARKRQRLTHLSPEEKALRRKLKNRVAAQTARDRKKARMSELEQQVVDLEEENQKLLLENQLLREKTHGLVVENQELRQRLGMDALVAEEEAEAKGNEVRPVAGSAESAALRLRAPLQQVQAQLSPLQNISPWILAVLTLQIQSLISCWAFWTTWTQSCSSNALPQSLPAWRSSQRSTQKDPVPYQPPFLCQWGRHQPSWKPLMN
Glucose-6-phosphate 1-dehydrogenase, sequence (P11413 whole entry): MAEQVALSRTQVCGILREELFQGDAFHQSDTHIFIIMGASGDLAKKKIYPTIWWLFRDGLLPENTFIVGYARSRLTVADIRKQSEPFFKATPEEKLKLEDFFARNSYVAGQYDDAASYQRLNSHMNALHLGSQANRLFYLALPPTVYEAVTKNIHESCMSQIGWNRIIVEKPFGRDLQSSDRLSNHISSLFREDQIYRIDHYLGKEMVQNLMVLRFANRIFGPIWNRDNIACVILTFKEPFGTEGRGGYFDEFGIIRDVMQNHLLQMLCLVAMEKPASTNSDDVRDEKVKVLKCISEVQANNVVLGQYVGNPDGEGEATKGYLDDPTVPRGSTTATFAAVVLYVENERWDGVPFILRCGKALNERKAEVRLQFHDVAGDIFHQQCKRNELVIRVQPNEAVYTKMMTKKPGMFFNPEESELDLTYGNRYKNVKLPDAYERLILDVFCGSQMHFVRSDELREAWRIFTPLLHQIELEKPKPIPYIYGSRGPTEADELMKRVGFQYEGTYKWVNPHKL
Photoreceptor-specific nuclear receptor, sequence (Q9Y5X4 whole entry): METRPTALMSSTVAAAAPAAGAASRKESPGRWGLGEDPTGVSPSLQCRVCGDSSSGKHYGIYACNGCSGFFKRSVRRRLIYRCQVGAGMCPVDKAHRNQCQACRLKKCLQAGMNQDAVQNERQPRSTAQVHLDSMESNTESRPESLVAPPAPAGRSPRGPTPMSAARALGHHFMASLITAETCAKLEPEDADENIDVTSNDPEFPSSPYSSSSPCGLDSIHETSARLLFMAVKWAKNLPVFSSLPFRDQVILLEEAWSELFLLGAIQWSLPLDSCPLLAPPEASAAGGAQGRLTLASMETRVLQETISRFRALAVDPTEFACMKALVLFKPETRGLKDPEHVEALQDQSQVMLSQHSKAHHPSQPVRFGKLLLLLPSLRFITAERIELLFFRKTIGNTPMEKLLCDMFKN
Beta-galactosidase, sequence (Q8VNN2 whole entry): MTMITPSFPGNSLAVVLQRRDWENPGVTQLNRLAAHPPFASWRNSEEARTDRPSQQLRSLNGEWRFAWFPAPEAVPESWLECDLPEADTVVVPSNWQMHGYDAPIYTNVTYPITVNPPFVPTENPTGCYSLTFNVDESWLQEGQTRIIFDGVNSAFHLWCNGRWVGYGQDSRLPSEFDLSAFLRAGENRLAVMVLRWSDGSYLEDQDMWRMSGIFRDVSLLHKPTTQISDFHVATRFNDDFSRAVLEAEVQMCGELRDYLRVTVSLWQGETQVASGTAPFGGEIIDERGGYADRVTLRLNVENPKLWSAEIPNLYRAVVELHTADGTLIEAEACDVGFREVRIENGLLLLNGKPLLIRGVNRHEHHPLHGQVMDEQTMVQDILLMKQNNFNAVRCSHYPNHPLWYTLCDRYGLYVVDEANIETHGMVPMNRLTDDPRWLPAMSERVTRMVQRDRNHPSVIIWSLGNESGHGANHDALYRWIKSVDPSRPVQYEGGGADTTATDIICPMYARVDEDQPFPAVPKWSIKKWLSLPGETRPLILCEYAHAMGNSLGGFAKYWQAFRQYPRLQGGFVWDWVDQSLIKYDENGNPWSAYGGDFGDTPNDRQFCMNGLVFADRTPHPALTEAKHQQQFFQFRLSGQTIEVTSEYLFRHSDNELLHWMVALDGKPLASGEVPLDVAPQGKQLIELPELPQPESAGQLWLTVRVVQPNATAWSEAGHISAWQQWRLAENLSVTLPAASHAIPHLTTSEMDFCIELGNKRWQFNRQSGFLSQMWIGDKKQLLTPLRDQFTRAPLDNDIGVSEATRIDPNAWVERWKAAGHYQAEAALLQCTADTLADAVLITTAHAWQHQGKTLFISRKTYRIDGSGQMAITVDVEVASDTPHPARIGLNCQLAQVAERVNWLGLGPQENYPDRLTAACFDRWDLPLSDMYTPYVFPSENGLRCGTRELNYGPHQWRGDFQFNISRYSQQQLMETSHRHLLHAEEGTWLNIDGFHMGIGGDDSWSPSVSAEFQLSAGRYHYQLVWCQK
DNA dC->dU-editing enzyme APOBEC-3G, sequence (Q9HC16 whole entry): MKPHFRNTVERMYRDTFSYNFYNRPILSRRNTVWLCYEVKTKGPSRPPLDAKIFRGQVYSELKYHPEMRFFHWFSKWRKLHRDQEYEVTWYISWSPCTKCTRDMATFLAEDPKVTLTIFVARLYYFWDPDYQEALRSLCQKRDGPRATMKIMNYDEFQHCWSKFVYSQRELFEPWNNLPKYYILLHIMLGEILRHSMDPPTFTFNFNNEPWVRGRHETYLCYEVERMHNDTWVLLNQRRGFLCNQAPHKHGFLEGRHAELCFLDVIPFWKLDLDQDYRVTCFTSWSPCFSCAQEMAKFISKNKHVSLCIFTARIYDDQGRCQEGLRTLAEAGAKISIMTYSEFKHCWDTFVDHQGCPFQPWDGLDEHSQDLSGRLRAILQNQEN
Peroxisome proliferator-activated receptor gamma/Nuclear receptor coactivator 3, sequence (P37231 whole entry): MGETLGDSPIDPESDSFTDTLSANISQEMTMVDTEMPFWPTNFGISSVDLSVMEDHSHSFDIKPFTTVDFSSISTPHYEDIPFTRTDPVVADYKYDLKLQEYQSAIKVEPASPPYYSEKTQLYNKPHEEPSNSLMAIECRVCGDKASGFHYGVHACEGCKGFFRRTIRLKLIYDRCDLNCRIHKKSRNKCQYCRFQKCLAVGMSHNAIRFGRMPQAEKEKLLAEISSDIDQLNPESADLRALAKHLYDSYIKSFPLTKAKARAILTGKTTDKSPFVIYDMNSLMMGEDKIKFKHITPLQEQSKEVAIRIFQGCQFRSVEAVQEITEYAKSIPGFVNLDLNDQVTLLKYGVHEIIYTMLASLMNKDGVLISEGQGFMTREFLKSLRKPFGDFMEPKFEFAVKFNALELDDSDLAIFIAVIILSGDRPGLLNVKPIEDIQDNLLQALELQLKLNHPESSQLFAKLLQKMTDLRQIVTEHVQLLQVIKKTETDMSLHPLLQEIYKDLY
Peroxisome proliferator-activated receptor gamma/Nuclear receptor coactivator 3, sequence (Q9Y6Q9 whole entry, further chain): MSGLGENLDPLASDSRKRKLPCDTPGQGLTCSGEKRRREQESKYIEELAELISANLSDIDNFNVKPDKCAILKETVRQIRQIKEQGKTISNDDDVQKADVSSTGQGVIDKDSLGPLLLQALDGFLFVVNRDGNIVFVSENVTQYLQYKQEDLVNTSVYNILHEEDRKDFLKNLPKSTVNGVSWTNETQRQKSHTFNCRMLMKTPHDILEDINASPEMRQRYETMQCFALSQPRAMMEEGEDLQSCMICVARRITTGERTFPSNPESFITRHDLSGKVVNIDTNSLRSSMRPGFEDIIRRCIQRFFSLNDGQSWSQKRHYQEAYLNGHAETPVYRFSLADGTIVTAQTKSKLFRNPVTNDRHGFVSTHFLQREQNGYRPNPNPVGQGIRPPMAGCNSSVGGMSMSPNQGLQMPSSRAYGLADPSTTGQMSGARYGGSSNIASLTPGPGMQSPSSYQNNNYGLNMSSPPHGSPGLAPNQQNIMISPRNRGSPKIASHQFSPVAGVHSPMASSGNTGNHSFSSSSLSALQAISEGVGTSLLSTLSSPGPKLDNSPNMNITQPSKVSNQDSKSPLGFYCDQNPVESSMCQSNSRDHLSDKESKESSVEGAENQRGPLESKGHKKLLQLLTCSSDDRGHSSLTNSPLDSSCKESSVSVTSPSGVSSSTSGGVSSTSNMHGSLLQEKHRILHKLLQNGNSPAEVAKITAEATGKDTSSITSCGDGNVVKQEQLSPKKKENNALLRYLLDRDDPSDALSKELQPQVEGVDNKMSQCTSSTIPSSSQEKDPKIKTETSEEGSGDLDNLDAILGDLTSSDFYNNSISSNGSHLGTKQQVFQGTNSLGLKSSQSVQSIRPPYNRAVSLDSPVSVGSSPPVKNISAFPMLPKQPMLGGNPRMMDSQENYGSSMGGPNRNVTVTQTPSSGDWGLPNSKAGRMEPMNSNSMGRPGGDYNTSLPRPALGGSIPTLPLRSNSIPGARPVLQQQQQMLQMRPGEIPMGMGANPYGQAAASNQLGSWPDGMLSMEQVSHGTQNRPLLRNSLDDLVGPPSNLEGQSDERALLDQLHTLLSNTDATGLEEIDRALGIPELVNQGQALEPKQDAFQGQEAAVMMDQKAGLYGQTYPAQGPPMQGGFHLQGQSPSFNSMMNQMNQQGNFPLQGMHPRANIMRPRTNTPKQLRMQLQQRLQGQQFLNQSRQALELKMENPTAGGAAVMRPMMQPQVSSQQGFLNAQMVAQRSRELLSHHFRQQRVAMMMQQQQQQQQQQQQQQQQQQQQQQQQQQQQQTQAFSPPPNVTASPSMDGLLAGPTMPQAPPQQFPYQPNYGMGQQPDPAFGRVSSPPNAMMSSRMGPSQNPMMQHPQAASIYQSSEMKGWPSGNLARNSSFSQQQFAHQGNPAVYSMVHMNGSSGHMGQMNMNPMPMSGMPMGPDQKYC
Protein Tat, sequence (P04608 whole entry): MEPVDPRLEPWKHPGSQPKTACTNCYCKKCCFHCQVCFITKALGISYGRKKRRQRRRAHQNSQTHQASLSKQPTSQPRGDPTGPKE

For `C=C(C=O)CC1CC(O)[C@]2(C)OC3CC4OC5C[C@]6(C)O[C@]7(C)CCC8OC9C[C@]%10(C)OC%11C(C)=CC(=O)OC%11CC%10OC9C[C@@H](C)C8OC7CC6O[C@]5(C)CC5OC5C4OC3CC2O1` (stereo partly drawn), the EC50 [1] was 1.17 µM (inconclusive), the EC50 [2] was 2.93 µM (inconclusive) and the EC50 [3] was 0.735 µM (inconclusive). For the same molecule, the “Absolute IC50 (XBP1)” value [4] was 4.71 µM.

With `Cc1ccnc(NS(=O)(=O)c2ccc(NC(=O)c3ccc([N+](=O)[O-])s3)cc2)n1` the EC50 [5] was 0.967 µM (active), the EC50 [6] was > 60 µM (not active) and the CC50 [7] was 10.2 µM (active). For the same molecule, the CC50 [8] was > 20 µM (active), the CC50 [9] was > 20 µM (active) and the IC50 [10] was 6.24 µM (active).

For `O=C(O)CCc1ccc(-c2ccc(Br)cc2)o1`, the IC50 [11] was > 39.8 µM (not active), the EC50 [12] was > 79.4 µM (inactive) and the EC50 [13] was > 79.4 µM (not active). The EC50 [14] was 65.4 µM (not active), the IC50 [15] was 4.4 µM (active) and the IC50 [16] was > 100 µM (active).

In the case of `Cc1ccc(NC(=O)c2ccc(Cl)c(N3C(=O)C=CC3=O)c2)cc1`, the IC50 [17] is reported as 48.8 µM (inactive), the AC50 [18] is reported as 4.21 µM (active) and the IC50 [19] is reported as > 66.6 µM (inactive). The IC50 [20] was 37.7 µM (active), the AC50 [21] was 3.64 µM (active) and the AC50 [22] was 1.6 µM (active). For the same molecule, the AC50 [23] was 55.1 µM (active), the AC50 [24] was 9.79 µM (active) and the AC50 [25] was 5.17 µM (active). The AC50 [26] was 1.93 µM (active).

In the case of `CCOC(=O)c1c(NC(=O)Cc2cccs2)sc(C(=O)NC2CCCCC2)c1C`, the “Absolute IC50 (XBP1)” value [4] is reported as 10 µM.

With `COc1ccc(C)cc1NC(=O)C12CCC(C)(C(=O)O1)C2(C)C` (stereo not drawn) the EC50 [27] was > 71.5 µM (inactive).
